Tested on: patients with fasting triglyceride levels >200 mg/dl and <500 mg/dl despite statin therapy
Assay: 12-week study: plasma fatty acids (EPA concentration, FADI ratios) by gas chromatography/flame ionization detection
Format: in vivo, human
Conditions: 4 g/day, placebo-adjusted, 12 weeks
Method: A multi-center, placebo-controlled, randomized, double-blind, 12-week study was performed to evaluate the efficacy and safety of >96% E-EPA in patients with fasting triglyceride levels >200 mg/dl and <500 mg/dl despite statin therapy (the mean of two qualifying entry values needed to be >185 mg/dl and at least one of the values needed to be >200 mg/dl). The primary objective of the study was to determine the efficacy of >96% E-EPA 2 g daily and 4 g daily, compared to placebo, in lowering fasting TG levels in patients with high risk for cardiovascular disease and with fasting TG levels 200 mg/dl and <500 mg/dl, despite treatment to LDL-C goal on statin therapy. The secondary objectives of this study were the following: • 1. To determine the safety and tolerability of >96% E-EPA 2 g daily and 4 g daily; • 2. To determine the effect of >96% E-EPA on lipid and apolipoprotein profiles including total cholesterol (TC), non-high-density lipoprotein cholesterol (non-HDL-C), low density lipoprotein cholesterol (LDL-C), high density lipoprotein cholesterol (HDL-C), and […]; • 3. To determine the effect of >96% E-EPA on lipoprotein associated phospholipase A2 (Lp-PLA2) from baseline to week 12; • 4. To determine the effect of >96% E-EPA on low-density lipoprotein (LDL) particle number and size; • 5. […]

CC/C=C\C/C=C\C/C=C\C/C=C\C/C=C\CCCC(=O)OCC [AMR101, ethyl eicosapentaenoate]
FADI-16 (Palmitoleic acid/Palmitic acid, C16:1/C16:0), % Change, Plasma: −6.8%
FADI-18 (Oleic acid/Stearic Acid, C18:1/C18:0), % Change, Plasma: −9.8%
